This note sets out measurements from article PMC6273304, “Efficient Double Suzuki Cross-Coupling Reactions of 2,5-Dibromo-3-hexylthiophene: Anti-Tumor, Haemolytic, Anti-Thrombolytic and Biofilm Inhibition Studies” (Molecules, 2016).

Values joined by “and” are separate entries in the source; they are usually repeats but may differ in a detail not shown here. Identical values can stand only once.

For one data set, the system named is 4T1 cells. The data set can be described thus: MTT assay, anti-tumor activity against 4T1 cells. Format: cell-based. Conditions: 72 h treatment. The text has this:
(§1) Metastasis is the major reason of morbidity and mortality in cancer disease. In breast cancer patients, several tissues involving liver, lung, bone, and lymph node are affected by tumor involvement. The anti-tumor activities of all newly-synthesized thiophene derivatives were screened for human breast cancer cell lines 4T1, MDA-MB-231, and MCF-7 using MTT (3-(4,5-dimethylthiazol-2-yl)-2,5-diphenyltetrazolium bromide) assay in vitro. Cisplatin was used as a standard anti-tumor drug in this assay. […] The highest activity of 3h might have been due to the presence of electron-donating methylthio group (-SMe) on aromatic phenyl ring.
(§2) In brief, 0.8 × 10^5 cells/mL were seeded in 96-well plates and were incubated in a humidified CO2 incubator overnight. The following day, serial dilution of the samples was performed with various concentration. The plates were left to incubate with the treatment for 72 h. After the designated time, 20 μL of MTT (5 mg/mL) was inserted into each of the wells and the cells were further incubated for an additional 4 h. Later, the media and the treatment were removed from all of the wells and 100 μL of DMSO was added. The absorbance plates were then read using a spectrophotometer (BioTek) at 570 nm.
(Tetrazolium dyes change colour on reduction, which living cells bring about.)

The next data set relates to MDA-MB-231 cells. The data set can be described thus: MTT assay, anti-tumor activity against MDA-MB-231 cells. Format: cell-based, human. Conditions: 72 h treatment.
Excerpt: as §1
The anti-tumor activity of all newly-synthesized compounds was also examined against MDA-MB-231 breast cancer cells. […] It is likely possible that the electron-withdrawing iodo groups (-I) attached with phenyl ring might have been affecting the cytotoxicity of MDA-MB-231 cells.
as §2

For the next data set, the system named is MCF-7 cells. The data set can be described thus: MTT assay, anti-tumor activity against MCF-7 cells. In kind it is cell-based, human.
Excerpt: as §1
The anti-tumor activity of these compounds was also studied for MCF-7 breast cancer cell line.
as §2

In a further data set the test system is human blood clots. The data set can be described thus: Anti-thrombolytic activity (in vitro clot lysis). Conditions: 100 μL sample, 90 min at 37 °C. The text has this:
Cerebral Venous Sinus Thrombosis (CVST) is a central nervous disorder, which is a common disease caused by thrombophilia and […]. This fatal disease has been treated by the application of intravenous heparin and warfarin drugs. Now a days, this disease is usually cured by thrombolytic drugs, such as urokinase and streptokinase, which are playing a significant effect in the cure of CVST [25]. In the present study, we have explored the potential of our newly synthesized thiophene derivatives for anti-thrombolytic activity by the procedure reported elsewhere. […] This highest value of % lysis achieved by 3g can be attributed to the electron-withdrawing fluorine and chlorine groups on the aromatic ring.
The anti-thrombolytic activity of all newly-synthesized thiophene derivatives was investigated by following the previously-reported method. In a typical procedure, the sterile eppendorfs were filled with fresh venous blood taken from the human volunteers. The eppendorf tubes, which contained human blood (500 μL), were placed for 45 min at 37 °C to allow for clot formation. Once the clots were formed, the known volumes (100 μL) of sample solutions (3a–i) were added in eppendorfs having no serum in the blood samples. Basically, the serum was removed from blood prior to the clot formation stage. After the addition of samples, the tubes were incubated again for 90 min at 37 °C. For each experiment, the compound Streptokinase was used as a positive control, while water was used as a negative control. The anti-thrombolytic activity of newly-synthesized products was determined at percentage.

Another data set relates to Escherichia coli. Kind of data set: Biofilm inhibition assay. The conditions noted are these: E. coli, 50 μM/mL, 24 h at 37 °C. Format: cell-based. As for the experimental part:
Pathogenic micro-organisms form a biofilm, which mainly causes morbidness and mortality. This biofilm consists of conglomerations of bacterial cells and secured by a polymeric substance created by itself. Several fatal infections are caused by biofilms and they are difficult to remove. The inhibition activities of all newly-synthesized thiophene derivatives (3a–i) against biofilm formation were assayed using the previously-reported method. The experimentally-determined biofilm inhibition values for all compounds are expressed in Table 3. A selected strain of Gram-negative bacteria (Escherichia coli) was used to determine the anti-bacterial activity of all new derivatives at concentration of 50 μM/mL. […] A likely possible cause of this high activity can be attributed to the electron-withdrawing substituents attached with the aromatic phenyl ring of 3d, which might have been playing a significant role for increasing the anti-bacterial activity of this compound against Gram-negative bacteria. We believe that our newly-developed thiophene-based compounds with high % inhibition values can be potentially used to control the formation of biofilms.
The newly-synthesized thiophene derivatives were assayed for their biofilm inhibition activity using the previously reported method. For these measurements, the solutions of the thiophene derivatives were prepared in ethyl acetate. In brief, about 100 μL of sample solutions (3a–i) and 100 μL nutrient broth (Oxoid, Hampshire, UK) along with bacterial suspension (20 μL) were placed on the wells of 96-well sterile culture plates. Rifampicin was used as a positive control, while nutrient broth was used as a negative control for these biofilm inhibition activity measurements. The plates were covered and incubated for 24 h at 37 °C. Each plate was washed three times by using 220 μL of phosphate-buffered solution. After washing, each plate was shaken strongly in order to remove the non-adherent bacteria. 220 μL of 99% methanol solution was used to fix the remaining bacteria from these plates, followed by the drying in hot oven. After drying, the plates were stained with […] of crystal violet with a concentration of […] for five minutes. The excess stain from these plates was removed simply by using tap water. About 220 µL glacial acetic acid (33% concentration) was used to remove the dye attached with the cells. Each well was examined for OD value with the help of the micro-plate reader (BioTek, Winooski, VT, USA) at 630 nm.

The next data set has as its system red blood cells (RBCs). The data set can be described thus: Haemolytic activity. In kind it is cell-based. The conditions noted are these: 30 min, pH 7.4. From the text:
The newly-synthesized molecules (3a–i) were also examined for their hemolytic activity, following the method reported by Powell and co-workers. The standard drug Triton X-100 was employed as a reference in these measurements. […] Ding et al. reported that chloro group-containing molecules display facile haemolytic activity as compared with those compounds having a methyl group substitution on the ring.
The hemolytic activity of newly synthesized thiophene derivatives was examined by following the previously-reported method. For these measurements, the solutions of the thiophene derivatives were prepared in ethyl acetate. In brief, about 3 mL of newly-obtained heparinized blood was taken in 15 mL sterile Falcon tube, which was later centrifuged for 5 min at 850 rpm. The supernatant was removed and washed three times and was later placed at room temperature for 30 min. In order to wash the thick pellet, 5 mL of ice-cold (4 °C) phosphate-buffered saline (PBS) having pH 7.4 was employed. The same PBS buffer (20 mL) was used to maintain the cells over longer periods of time. The erythrocytes present in cells were measured and diluted with PBS buffer. Approximately 180 µL of this suspension of erythrocytes was taken along with 20 µL of sample solution (3a–i) in eppendorfs. These eppendorfs were incubated thermally at human body temperature for 30 min, followed by centrifuging at 1310 rpm again for 5 min. After significant centrifugation, the supernatant was removed and diluted with phosphate-buffered saline (900 µL) and was later placed on ice. Each sample solution (200 µL) was kept in 96-well culture plates. For each measurement, phosphate-buffered saline and 0.1% Triton X-100 were employed as negative and positive control, respectively. A quant instrument was used to observe the absorbance of all sample solutions at 576 nm.

The mark [1] stands for this setting: Homo sapiens, MCF7, 72 h treatment.

Take `N.N.[Cl][Pt][Cl]` [Cisplatin, reference compound]: the IC50 was 21.5 µM in the data set with 4T1 cells; 29 µM and 29.1 µM in the data set with MDA-MB-231 cells; 48 µM and 48.3 µM in the data set on MCF-7 cells (72 h treatment).

Consider `CCCCCCc1cc(-c2ccc(C)cc2)sc1-c1ccc(C)cc1` [Compound 3a, 2,5-Bis(4-methylphenyl)-3-hexylthiophene], for which the “% Lysis (clot lysis, anti-thrombolytic activity)” value in the data set with human blood clots is listed as 16.25 ± 0.028%. Also, testing at 50 µM with Escherichia coli gave an inhibition of 62.5 ± 0.038%. For the same compound, the concentration for half-maximal inhibition (IC50) was found to be 30.5 ± 0.08 µM in the data set on 4T1 cells (4T1, 72 h); 36.8 ± 0.21 µM in the data set with MDA-MB-231 cells (Homo sapiens); 26.2 ± 0.7 µM in the data set on MCF-7 cells (setting [1]).

Take `CCCCCCc1cc(-c2cc(C)cc(C)c2)sc1-c1cc(C)cc(C)c1` [Compound 3b, 2,5-Bis(3,5-dimethylphenyl)-3-hexylthiophene]: the “% Lysis (clot lysis, anti-thrombolytic activity)” value in the data set with human blood clots is reported as 25.32 ± 0.092%. Besides, the “% Lysis of RBC” value with red blood cells (RBCs) turned out to be 4.54 ± 0.014%. For the same compound, in the data set with Escherichia coli, the inhibition at 50 µM was found to be 59.48 ± 0.073%. The IC50 was 30 ± 0.81 µM with 4T1 cells (4T1, 72 h); 32.2 ± 2.73 µM with MDA-MB-231 cells (Homo sapiens); 33.8 ± 0.29 µM in the data set with MCF-7 cells (setting [1]).

As to `CCCCCCc1cc(-c2ccc(OC)cc2)sc1-c1ccc(OC)cc1` [Compound 3c, 3-Hexyl-2,5-bis(4-methoxyphenyl)thiophene], the “% Lysis (clot lysis, anti-thrombolytic activity)” value in the data set with human blood clots is 41.12% and 41.12 ± 0.035%. In the data set on red blood cells (RBCs), the “% Lysis of RBC” value turned out to be 5.80 ± 0.045%. The same compound had an inhibition at 50 µM with Escherichia coli of 73.27 ± 0.023%. For the same compound, the concentration for half-maximal inhibition (IC50) in the data set on 4T1 cells (4T1, 72 h) is 29.5 ± 4.3 µM; in the data set with MDA-MB-231 cells (Homo sapiens), 40 ± 0.41 µM; with MCF-7 cells (setting [1]), 35.7 ± 0.09 µM.

For the compound `CCCCCCc1cc(-c2ccc(Cl)cc2)sc1-c1ccc(Cl)cc1` [Compound 3d, 2,5-Bis(4-chlorophenyl)-3-hexylthiophene], in the data set on human blood clots, the “% Lysis (clot lysis, anti-thrombolytic activity)” value was 2.04 ± 0.091%. For the same compound, the “% Lysis of RBC” value in the data set with red blood cells (RBCs) is reported as 6.66 ± 0.057%. In the data set on Escherichia coli, this compound gave an inhibition at 50 µM of 78.85 ± 0.057%. Further, the concentration for half-maximal inhibition (IC50) was determined as 22.8 ± 0.04 µM in the data set with 4T1 cells (4T1, 72 h); 24.8 ± 0.56 µM in the data set with MDA-MB-231 cells (Homo sapiens); 27.5 ± 0.67 µM in the data set on MCF-7 cells (setting [1]).

`CCCCCCc1cc(-c2ccc(I)cc2)sc1-c1ccc(I)cc1` [Compound 3e, 3-Hexyl-2,5-bis(4-iodophenyl)thiophene]: in the data set on human blood clots, the “% Lysis (clot lysis, anti-thrombolytic activity)” value is reported as 32.42 ± 0.046%. Besides, the “% Lysis of RBC” value in the data set on red blood cells (RBCs) came to 3.62 ± 0.024%. Further, in the data set on Escherichia coli, the inhibition at 50 µM amounted to 73.8 ± 0.032%. For the same compound, the half-inhibitory concentration (IC50) in the data set with 4T1 cells (4T1, 72 h) was found to be 21.5 ± 3.71 µM; with MDA-MB-231 cells (Homo sapiens) it was 22.9 ± 3.8 µM; in the data set on MCF-7 cells (setting [1]), 91.4 ± 0.59 µM.

As for `CCCCCCc1cc(-c2cc(F)cc(F)c2)sc1-c1cc(F)cc(F)c1` [Compound 3f, 2,5-Bis(3,5-difluorophenyl)-3-hexylthiophene], the “% Lysis (clot lysis, anti-thrombolytic activity)” value with human blood clots was 12.34 ± 0.073%. The inhibition at 50 µM in the data set on Escherichia coli was found to be 69.68 ± 0.049%. For the same compound, the IC50 in the data set on 4T1 cells (4T1, 72 h) was 31.5 ± 1.1 µM; in the data set with MDA-MB-231 cells (Homo sapiens), 28.1 ± 0.72 µM; with MCF-7 cells (setting [1]) it was 42.8 ± 2.87 µM.

For the compound `CCCCCCc1cc(-c2ccc(F)c(Cl)c2)sc1-c1ccc(F)c(Cl)c1` [Compound 3g, 2,5-Bis(3-chloro-4-fluorophenyl)-3-hexylthiophene], the “% Lysis (clot lysis, anti-thrombolytic activity)” value in the data set on human blood clots was 53.12% and 53.12 ± 0.063%. Further, the “% Lysis of RBC” value with red blood cells (RBCs) was determined as 15.57 ± 0.034%. Besides, testing at 50 µM in the data set with Escherichia coli gave an inhibition of 75.53 ± 0.041%. The IC50 with 4T1 cells (4T1, 72 h) worked out at 22 ± 0.57 µM; with MDA-MB-231 cells (Homo sapiens) it was 26.2 ± 0.28 µM; in the data set with MCF-7 cells (setting [1]) it was 44 ± 0.17 µM.

For the compound `CCCCCCc1cc(-c2ccc(SC)cc2)sc1-c1ccc(SC)cc1` [Compound 3h, 3-Hexyl-2,5-bis(4-(methylthio)phenyl)thiophene], in the data set with human blood clots, the “% Lysis (clot lysis, anti-thrombolytic activity)” value stood at 0.27 ± 0.021%. This compound also showed an inhibition at 50 µM in the data set on Escherichia coli of 27.12 ± 0.039%. Also, the 50% inhibitory concentration (IC50) in the data set on 4T1 cells (4T1, 72 h) was 16 µM; in the data set with 4T1 cells it was 16.1 ± 0.09 µM; in the data set on MDA-MB-231 cells (Homo sapiens) it was 29.2 ± 0.04 µM; with MCF-7 cells (setting [1]) it was 35.1 ± 3.8 µM.

With `CCCCCCc1cc(-c2cccc(C(C)=O)c2)sc1-c1cccc(C(C)=O)c1` [Compound 3i, 2,5-Bis(3-acetylphenyl)-3-hexylthiophene], in the data set with human blood clots, the “% Lysis (clot lysis, anti-thrombolytic activity)” value was found to be 1.84 ± 0.083%. This compound also showed an inhibition at 50 µM with Escherichia coli of 76.86 ± 0.083%. Moreover, the 50% inhibitory concentration (IC50) stood at 23.2 ± 0.08 µM with 4T1 cells (4T1, 72 h); 36.8 ± 0.82 µM with MDA-MB-231 cells (Homo sapiens); 36.8 ± 0.03 µM in the data set with MCF-7 cells (setting [1]).

In the case of Streptokinase [reference compound], the “% Lysis (clot lysis, anti-thrombolytic activity)” value in the data set with human blood clots was 100%.

One may read the IC50 as the point on the concentration scale where inhibition reaches its midpoint. A lower IC50 goes with higher potency. The term inhibition denotes the percentage by which the read-out fell short of the control. High values mean strong suppression, low ones little suppression.
